The values that follow come from patent US5185331A, “Triazolobenzodiazepines” (Merck & Co., Inc., priority 1991, dated 1993).

One data set relates to CCK-B receptors. The note with it: brain; cited from earlier work.
In a further data set the test system is CCK-A receptors. The note with it: pancreas, gallbladder, colon; cited from earlier work.
For data set [1] the following is noted: rat, brain synaptosomal fraction; cited from earlier work.
In another data set the target is T1, CCK receptor (brain) (Cavia porcellus, UniProt H0VZC5).
T1 construct: Cerebral cortex was dissected and used as a receptor source; from tissue; host or cells: guinea pig cerebral cortex (male Hartley), washed membrane pellet of homogenate
The data set is described as follows: 125I-CCK receptor binding (brain). On the set-up: species or system guinea pig (male Hartley). The note with it: guinea pig cerebral cortex, 125I-CCK-33, 25° C., 2 hours. How it is done:
2. CCK Receptor Binding (Brain)
CCK-33 was radiolabeled and the binding was performed according to the description for the pancreas method with modification according to Saito et al. (J. Neurochem. 37, 483-490, 1981).
Male Hartley guinea pigs (300-500 g) were sacrificed by decapitation and the brains were removed and placed in ice-cold 50 mM, Tris HCl plus 7.58 g/l Trizma-7.4 (pH 7.4 at 25° C.). Cerebral cortex was dissected and used as a receptor source. Each gram of fresh guinea pig brain tissue was homogenized in 10 ml of Tris Trizma buffer with a Brinkman polytron PT-10. The homogenates were centrifuged at 42,000 g for 15 min. […] All assays were run in duplicate or triplicate. The reaction mixtures were incubated at 25° C. for 2 hours and centrifuged in a Beckman Microfuge (4 minutes) immediately after adding 1 ml of ice-cold incubation buffer. The supernatant was aspirated and discarded, pellets were counted with a Beckman gamma 5000.

For the next data set, the target named is T2, CCK receptor (pancreas) (Rattus norvegicus, UniProt P30551).
T2 construct: The whole pancreas was dissected free of fat tissue and was homogenized; from tissue; host or cells: rat pancreas (male Sprague-Dawley), washed membrane pellet of homogenate
T2 sequence (P30551 1-444): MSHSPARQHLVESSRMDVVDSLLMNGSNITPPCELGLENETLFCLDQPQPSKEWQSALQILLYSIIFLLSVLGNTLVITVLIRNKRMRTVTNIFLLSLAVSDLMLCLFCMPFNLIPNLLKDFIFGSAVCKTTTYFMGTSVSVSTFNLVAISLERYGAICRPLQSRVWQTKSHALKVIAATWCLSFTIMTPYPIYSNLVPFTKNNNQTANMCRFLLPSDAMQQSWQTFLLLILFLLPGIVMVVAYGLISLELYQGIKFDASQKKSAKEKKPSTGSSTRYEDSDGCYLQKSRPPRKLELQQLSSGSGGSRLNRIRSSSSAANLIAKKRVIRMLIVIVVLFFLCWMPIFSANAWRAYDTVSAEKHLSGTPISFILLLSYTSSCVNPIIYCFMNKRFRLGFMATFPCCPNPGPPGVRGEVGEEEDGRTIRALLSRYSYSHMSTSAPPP
In words: 125I-CCK receptor binding (pancreas). On the set-up: species or system rat (male Sprague-Dawley). To be noted: for effect on the 125I-CCK receptor binding assay: added as protease inhibitor. How it is done:
1. CCK receptor binding (pancreas)
CCK-33 was radiolabeled with ^125 I-Bolton Hunter reagent (2000 Ci/mmole) as described by Sankara et al. (J. Biol. Chem. 254: 9349-9351, 1979). Receptor binding was performed according to Innis and Snyder (Proc. Natl. Acad. Sci. 77: 6917-6921, 1980) with the minor modification of adding the additional protease inhibitors, phenylmethane sulfonyl fluoride and o-phenanthroline. The latter two compounds have no effect on the ^125 I-CCK receptor binding assay.
Male Sprague-Dawley rats (200-350 g) were sacrificed by decapitation. The whole pancreas was dissected free of fat tissue and was homogenized in 20 volumes of ice-cold 50 mM, Tris HCl (pH 7.7 at 25° C.) with a Brinkmann Polytron PT 10. The homogenates were centrifuged at 48,000 g for 10 min. Pellets were resuspended in Tris Buffer, centrifuged as above and resuspended in 200 volumes of binding assay buffer (50 mM Tris HCl, pH 7.7 at 25° C., 5 mM dithiothrietol, 0.1 mM bacitracin, 1.2 mM phenylmethane sulfonyl fluoride and 0.5 mM o-phenanthroline). […] All assays were run in duplicate or triplicate. The reaction mixtures were incubated at 37° C. for 30 minutes and centrifuged in a Beckman Microfuge (4 minutes) immediately after adding 1 ml of ice-cold incubation buffer. The supernatant was aspirated and discarded, pellets were counted with a Beckman gamma 5000. For Scatchard analysis (Ann. N.Y. Acad. Sci. 51: 660, 1949), ^125 I-CCK-33 was progressively diluted with increasing concentrations of CCK-33.

Read-outs that look alike come from different tables or passages of the source.

T1 sequence (H0VZC5 entry or part of it): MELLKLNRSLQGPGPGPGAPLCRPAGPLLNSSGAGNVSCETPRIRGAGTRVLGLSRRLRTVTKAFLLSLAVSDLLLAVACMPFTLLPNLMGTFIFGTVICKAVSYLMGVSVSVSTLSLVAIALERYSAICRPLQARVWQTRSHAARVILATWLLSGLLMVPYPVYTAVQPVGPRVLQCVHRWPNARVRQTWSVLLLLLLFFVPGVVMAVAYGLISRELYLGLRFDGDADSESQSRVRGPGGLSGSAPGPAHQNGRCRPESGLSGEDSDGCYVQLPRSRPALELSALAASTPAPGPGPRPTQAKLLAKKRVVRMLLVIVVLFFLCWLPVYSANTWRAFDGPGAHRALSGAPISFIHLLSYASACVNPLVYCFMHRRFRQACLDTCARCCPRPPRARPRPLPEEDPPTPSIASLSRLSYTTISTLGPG

For `CSCC[C@H](NC(=O)[C@H](Cc1ccc(OS(=O)(=O)O)cc1)NC(=O)[C@@H](N)CC(=O)O)C(=O)NCC(=O)N[C@@H](Cc1c[nH]c2ccccc12)C(=O)N[C@@H](CCSC)C(=O)N[C@@H](CC(=O)O)C(=O)N[C@@H](Cc1ccccc1)C(N)=O` [CCK-8s, H-Asp-Tyr(SO3 H)-Met-Gly-Trp-Met-Asp-Phe-NH2], the “affinity for CCK-B receptors” value with CCK-B receptors is “high affinity”. For the same compound, the “affinity for CCK-A receptors” value with CCK-A receptors is reported as “high affinity”. In addition, the half-life result in data set [1] is on record as “less than 1 hour”.
As a reminder, the IC50 is the concentration that inhibits the measured activity by half. Read a high IC50 as weaker potency in that assay. With `O=C(Nc1ccc(Cl)cc1)NC1N=C(c2ccccc2)c2ccccc2-n2cnnc21` (centres unmarked) [Compound 11, N-(4-Chlorophenyl)-N'-(6-phenyl-4H-[1,2,4]triazolo-[4,3-a][1,4]benzodiazepin-4-yl)urea], the IC50 came out at 480 nM at CCK receptor (brain) and 120 nM at CCK receptor (pancreas).
Take `Cc1nnc2n1-c1ccccc1C(c1ccccc1)=NC2NC(=O)Nc1ccc(Cl)cc1` (centres unmarked) [Compound 12, N-(4-Chlorophenyl)-N'-(1-methyl-6-phenyl-4H-[1,2,4]triazolo[4,3-a][1,4]benzodiazepin-4-yl)urea]: the IC50 at CCK receptor (brain) was found to be 80 nM; on CCK receptor (pancreas) (rat pancreas membranes, 125I-CCK-33, 37° C., 30 minutes) it was 82 nM.
For the compound `c1cnc2c(c1)ccc1cccnc12` [o-phenanthroline], the “effect on the 125I-CCK receptor binding assay” value at CCK receptor (pancreas) is listed as “no effect”.
For the compound `CSCC[C@H](NC(=O)[C@H](Cc1c[nH]c2ccccc12)NC(=O)CCNC(=O)OC(C)(C)C)C(=O)N[C@@H](CC(=O)O)C(=O)N[C@@H](Cc1ccccc1)C(N)=O` [pentagastrin], the “affinity for CCK-B receptors” value in the data set on CCK-B receptors is recorded as “high affinity”.
Turning to `O=S(=O)(F)Cc1ccccc1` [phenylmethane sulfonyl fluoride], the “effect on the 125I-CCK receptor binding assay” value on CCK receptor (pancreas) is reported as “no effect”.
As to CCK-4, the “affinity for CCK-B receptors” value in the data set with CCK-B receptors was “high affinity”. Further, the “affinity for CCK-A receptors” value in the data set with CCK-A receptors is on record as “lower affinity”.
For the compound “CCK-8d: the corresponding desulphated fragment”, the “affinity for CCK-A receptors” value with CCK-A receptors is “lower affinity”.
For gastrin, in the data set with CCK-A receptors, the “affinity for CCK-A receptors” value was “lower affinity”.
